Data on 45 compounds can be found in patent publication US20240343727A1, “PYRIDAZINONE OR PYRIDINONE COMPOUNDS, PREPARATION METHODS AND USES THEREOF” (InventisBio Co., Ltd., priority 2021, published 2024).

A value given as a limit tells only on which side of the number the result lay.

This assay addresses T1, PARP7 (Homo sapiens, UniProt Q7Z3E1).
T1 sequence (Q7Z3E1 1-657): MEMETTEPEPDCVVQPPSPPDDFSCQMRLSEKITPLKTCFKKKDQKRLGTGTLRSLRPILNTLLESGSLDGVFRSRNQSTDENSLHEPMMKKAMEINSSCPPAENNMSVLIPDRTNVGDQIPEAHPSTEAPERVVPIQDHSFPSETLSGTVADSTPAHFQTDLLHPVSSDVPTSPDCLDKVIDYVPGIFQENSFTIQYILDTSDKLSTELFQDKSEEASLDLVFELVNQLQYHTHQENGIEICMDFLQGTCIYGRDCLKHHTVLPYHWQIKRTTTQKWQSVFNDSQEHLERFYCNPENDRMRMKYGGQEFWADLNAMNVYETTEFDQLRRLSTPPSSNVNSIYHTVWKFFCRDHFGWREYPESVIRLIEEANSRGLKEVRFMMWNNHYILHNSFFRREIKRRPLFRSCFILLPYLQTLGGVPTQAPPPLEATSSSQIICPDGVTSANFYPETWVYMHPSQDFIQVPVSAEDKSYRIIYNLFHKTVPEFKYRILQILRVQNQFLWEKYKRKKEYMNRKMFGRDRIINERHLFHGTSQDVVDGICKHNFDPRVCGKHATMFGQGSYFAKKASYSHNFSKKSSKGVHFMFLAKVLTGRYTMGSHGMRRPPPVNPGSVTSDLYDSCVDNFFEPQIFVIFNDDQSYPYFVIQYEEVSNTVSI
The assay is described as follows: PARP7 TR-FRET assay (binding, displacement of biotinylated Probe A). Particulars: 6 nM PARP7, 2 nM Probe A, 25° C., 30 min. In short, it runs like this: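 His-tagged PARP7 at 6 nM was preincubated with compound and 2 nM biotinylated Probe A for 30 min at 25° C (HEPES pH 8.0, NaCl, BSA, DTT, Tween20). Europium-streptavidin/ULight-anti-His FRET was read as the 665/615 nm ratio after a further 30 min. IC50 was fitted from % inhibition normalised to vehicle and blank.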
As to `N#Cc1cnc(N2CCN(C(=O)CC3CN(c4cc(C(F)(F)F)c(=O)[nH]n4)c4cc(F)ccc4O3)CC2)nc1` (single isomer, unassigned) [Compound 264], the IC50 is less than 100 nM.
In turn, `O=C(CC1CN(c2cc(C(F)(F)F)c(=O)[nH]n2)c2cc(F)ccc2O1)N1CCN(c2ncc(C(F)(F)F)cn2)CC1` (single isomer, unassigned) [Compound 131] had an IC50 of 100 to 1000 nM.
As for `C#Cc1cc(N2CCOCC2C(=O)N2CCN(c3ncc(C(F)(F)F)cn3)CC2)n[nH]c1=O` (stereo not drawn) [Compound 46], the figure is greater than 1000 nM; as for `Cc1c(N2C[C@H](CC(=O)N3CCN(c4ncc(C(F)(F)F)cn4)CC3)O[C@H](C)C2)n[nH]c(=O)c1C(F)(F)F` (stereo in doubt) [Compound 41], less than 100 nM.
As for `O=C(c1cccc(Oc2n[nH]c(=O)c(C(F)(F)F)c2N2CC3(CCC3)C2)c1)N1CCN(c2ncc(C3CC3)cn2)CC1` [Compound 226], the figure is less than 100 nM.
As for `C[C@@H]1CN(C(=O)CC2CN(c3cc(C(F)(F)F)c(=O)[nH]n3)c3cc(C#N)ccc3O2)CCN1c1ncc(C(F)(F)F)cn1` (single isomer, unassigned) [Compound 152], the IC50 was less than 100 nM.
The figure for `CN(C)CCNc1c(Oc2cccc(C(=O)N3CCN(c4ncc(C(F)(F)F)cn4)CC3)c2)n[nH]c(=O)c1C(F)(F)F` [Compound 172] is less than 100 nM; for `O=C(CC1CN(c2n[nH]c(=O)c3cc(Cl)cc(F)c23)CCO1)N1CCN(c2ncc(C(F)(F)F)cn2)CC1` (single isomer, unassigned) [Compound 241] it is greater than 1000 nM; for `C[C@@H]1CN(c2n[nH]c(=O)c3c(F)cccc23)C[C@@H](CC(=O)N2CCN(c3ncc(C(F)(F)F)cn3)CC2)O1` (stereo in doubt) [Compound 96] it is 100 to 1000 nM.
Compound `C[C@H]1CN(c2ncc(C(F)(F)F)cn2)CCN1C(=O)c1cccc(Oc2n[nH]c(=O)c(C(F)(F)F)c2N2CC3(CCO3)C2)c1` [Compound 255] displayed an IC50 of less than 100 nM.
The figure for `O=C(CC1CN(c2cc(C(F)(F)F)c(=O)[nH]n2)c2cc(F)ccc2O1)N1CCN(c2cnc(C(F)(F)F)cn2)CC1` (single isomer, unassigned) [Compound 292] is 100 to 1000 nM.
As for `O=C(OC1CN(c2cc(C(F)(F)F)c(=O)[nH]n2)CCC1(F)F)N1CCN(c2ncc(C(F)(F)F)cn2)CC1` (single isomer, unassigned) [Compound 81], the figure is less than 100 nM; as for `O=C(CC1CN(c2cc(C(F)(F)F)c(=O)[nH]n2)c2ccccc2O1)N1CCN(c2nnc(C(F)(F)F)s2)CC1` (single isomer, unassigned) [Compound 287], 100 to 1000 nM; as for `C[C@@H]1CN(C(=O)c2cccc(Oc3n[nH]c(=O)c(C(F)(F)F)c3N3CC4(C3)CC(F)(F)C4)c2)CCN1c1ncc(C#N)cn1` [Compound 341], less than 100 nM.
The figure for `CO[C@H]1C[C@@H](Nc2c(Oc3cccc(C(=O)N4CCN(c5ncc(C(F)(F)F)cn5)CC4)c3)n[nH]c(=O)c2C(F)(F)F)C1` [Compound 191] is less than 100 nM; for `O=C(c1cccc(Oc2n[nH]c(=O)c(C(F)(F)F)c2N2CC3(CCC3)C2)c1)N1CCC(F)(F)CC1` [Compound 159] it is 100 to 1000 nM; for `N#Cc1ccc(N2CCN(C(=O)CC3CN(c4cc(C(F)(F)F)c(=O)[nH]n4)c4cc(F)ccc4O3)CC2)nc1` (single isomer, unassigned) [Compound 268] it is less than 100 nM.
`O=C(CCO[C@H]1CCNc2c1n[nH]c(=O)c2C(F)(F)F)N1CCN(c2ncc(C(F)(F)F)cn2)CC1` (single isomer, unassigned) [Compound 7] showed an IC50 of 100 to 1000 nM.
In turn, `N#Cc1ccc2c(=O)[nH]nc(N3CCOC(CC(=O)N4CCN(c5ncc(C(F)(F)F)cn5)CC4)C3)c2c1` (single isomer, unassigned) [Compound 244] yielded an IC50 of 100 to 1000 nM.
In turn, `Cc1c(Oc2cc(C(=O)N3CCN(c4ncc(C(F)(F)F)cn4)CC3)ccc2C2CC2)n[nH]c(=O)c1C(F)(F)F` [Compound 64] yielded an IC50 of less than 100 nM.
As for `O=C(CC1CN(c2n[nH]c(=O)c3cccnc23)CCO1)N1CCN(c2ncc(C(F)(F)F)cn2)CC1` (single isomer, unassigned) [Compound 124], the figure is greater than 1000 nM; as for `O=C(CC1CN(c2cc(C(F)(F)F)c(=O)[nH]n2)c2cc(F)ccc2O1)N1CCN(c2ncc(OC(F)(F)F)cn2)CC1` (single isomer, unassigned) [Compound 311], less than 100 nM.
As for `C#Cc1ccc2c(N3CCOC(CC(=O)N4CCN(c5ncc(C(F)(F)F)cn5)CC4)C3)n[nH]c(=O)c2c1` (single isomer, unassigned) [Compound 196], the figure is 100 to 1000 nM.
The figure for `C#CC1CN(c2c(Oc3cccc(C(=O)N4CCN(c5ncc(C(F)(F)F)cn5)CC4)c3)n[nH]c(=O)c2C(F)(F)F)C1` [Compound 185] is less than 100 nM.
Consider `C[C@@H]1CN(c2cc(C(F)(F)F)c(=O)[nH]n2)C[C@H](CC(=O)N2CCN(c3ncc(C(F)(F)F)cn3)CC2)O1` (stereo in doubt) [Compound 110], for which the IC50 lay within 100 to 1000 nM.
The figure for `Cc1c(C(F)(F)F)c(Oc2cccc(C(=O)N3CCN(c4ncc(C(F)(F)F)cn4)CC3)c2)n[nH]c1=O` [Compound 17] is greater than 1000 nM; for `COC[C@@H]1C[C@H](OCC(=O)N2CCN(c3ncc(C(F)(F)F)cn3)CC2)c2n[nH]c(=O)c(C(F)(F)F)c2O1` [Compound 116] it is 100 to 1000 nM; for `O=C(CC1CN(c2n[nH]c(=O)c3ncccc23)CCO1)N1CCN(c2ncc(C(F)(F)F)cn2)CC1` (single isomer, unassigned) [Compound 126] it is greater than 1000 nM.
Compound `Cc1c(Oc2cccc(C(=O)N3CCN(c4ncc(C(F)(F)F)s4)CC3)c2)n[nH]c(=O)c1C(F)(F)F` [Compound 66] yielded an IC50 of less than 100 nM.
The figure for `N#Cc1ccc(N2CCN(C(=O)CC3CN(c4cc(C(F)(F)F)c(=O)[nH]n4)c4ccccc4O3)CC2)nc1` (single isomer, unassigned) [Compound 221] is less than 100 nM; for `O=C(c1cc(Oc2n[nH]c(=O)c(C(F)(F)F)c2N2CC3(C2)CC(F)(F)C3)ccn1)N1CCN(c2ncc(Cl)cn2)CC1` [Compound 307] it is less than 100 nM.
The figure for `Cc1c(Oc2ccc(F)c(C(=O)N3CCN(c4ncc(C(F)(F)F)cn4)CC3)c2)n[nH]c(=O)c1C(F)(F)F` [Compound 25] is less than 100 nM.
In the case of `CNCc1ccc2c(c1)N(c1cc(C(F)(F)F)c(=O)[nH]n1)CC(CC(=O)N1CCN(c3ncc(C(F)(F)F)cn3)CC1)O2` (single isomer, unassigned) [Compound 298], the IC50 lay in the range of 100 to 1000 nM.
As for `CC1(C)CN(c2c(Oc3cccc(C(=O)N4CCN(c5ncc(C(F)(F)F)cn5)CC4)c3)n[nH]c(=O)c2C(F)(F)F)C1` [Compound 174], the figure is less than 100 nM.
As for `O=C(CC1CN(c2cc(C(F)(F)F)c(=O)[nH]n2)c2ccccc2O1)N1CCN(c2ncc(C(F)F)cn2)CC1` (single isomer, unassigned) [Compound 249], the figure is 100 to 1000 nM; as for `O=C(CC1CN(c2cc(C(F)(F)F)c(=O)[nH]n2)c2ccc(F)cc2O1)N1CCN(c2ncc(C(F)(F)F)cn2)CC1` (single isomer, unassigned) [Compound 158], 100 to 1000 nM; as for `CN1CC[C@H](OCC(=O)N2CCN(c3ncc(C(F)(F)F)cn3)CC2)c2n[nH]c(=O)c(C(F)(F)F)c21` (single isomer, unassigned) [Compound 5], 100 to 1000 nM.
The figure for `O=C(c1cccc(Oc2n[nH]c(=O)c(C(F)(F)F)c2N2CC3(CCCO3)C2)c1)N1CCN(c2ncc(C(F)(F)F)cn2)CC1` [Compound 162] is less than 100 nM; for `O=C(CC1CN(c2n[nH]c(=O)c3ccc(C4CC4)cc23)CCO1)N1CCN(c2ncc(C(F)(F)F)cn2)CC1` (single isomer, unassigned) [Compound 103] it is less than 100 nM.
In turn, `COC1CN(c2c(Oc3ccnc(C(=O)N4CCN(c5ncc(C(F)(F)F)cn5)CC4)c3)n[nH]c(=O)c2C(F)(F)F)C1` [Compound 315] had an IC50 of less than 100 nM.
As for `N#CC1(c2ccc3c(c2)N(c2cc(C(F)(F)F)c(=O)[nH]n2)CC(CC(=O)N2CCN(c4ncc(C(F)(F)F)cn4)CC2)O3)CC1` (single isomer, unassigned) [Compound 137], the figure is less than 100 nM.
The figure for `O=C(CC1CN(c2cc(C(F)(F)F)c(=O)[nH]n2)c2cc(C3CC3)ccc2O1)N1CCN(c2ncc(C(F)(F)F)cn2)CC1` (single isomer, unassigned) [Compound 135] is less than 100 nM; for `O=C(c1cccc(Oc2n[nH]c(=O)c(C(F)(F)F)c2N2CC3(CCO3)C2)c1)N1CCN(c2ncc(C(F)(F)F)cn2)C2(CC2)C1` [Compound 253] it is less than 100 nM; for `Cc1c(Sc2cccc(C(=O)N3CCN(c4ncc(C(F)(F)F)cn4)CC3)c2)n[nH]c(=O)c1C(F)(F)F` [Compound 62] it is less than 100 nM.
The figure for `O=C(OC[C@@H]1CCCN1c1cc(C(F)(F)F)c(=O)[nH]n1)N1CCN(c2ncc(C(F)(F)F)cn2)CC1` [Compound 87] is less than 100 nM.
